Source: patent publication US20260137677A1, “PROTACS USEFUL AGAINST THE MAIN PROTEASE SARS-COV-2” (Tocris Cookson Limited, priority 2022, published 2026)
Like-named read-outs stand apart in the source and are kept apart here.

What was measured:
[1] = target: T1, recombinant SARS-CoV-2 main protease (Mpro) (Severe acute respiratory syndrome coronavirus 2, UniProt P0DTD1); assay: biochemical; conditions: FRET assay, Mpro 50 nM, substrate 10 μM
T1 construct: the main protease (Mpro; also called 3CLpro) which has an essential role in processing the polyproteins

[2] = system: SARS-CoV-2 (SARS-CoV2/ZG/297-20) in Vero E6 cells; assay: microbe, parasite or virus in culture; type: cell-based; conditions: for inhibition at 10 µM / inhibition at 50 µM: Severe acute respiratory syndrome coronavirus 2, Vero C1008, 72 h; for inhibition at 10 µM: read-out: Antiviral Activity 10 uM; for inhibition at 50 µM: read-out: Antiviral Activity 50 uM
[3] = system: SARS-CoV-2 (SARS-CoV2/ZG/297-20) in Vero E6 cells; assay: Plaque reduction assay in Vero E6 cells; type: cell-based

O=C1CCC(N2C(=O)c3cccc(OCCCCCCCCC(=O)Nc4cccn([C@@H](CC5CC5)C(=O)N[C@@H](C[C@@H]5CCNC5=O)C(=O)C(=O)NCc5ccccc5)c4=O)c3C2=O)C(=O)N1 (stereo partly drawn) [BT153, N-(1-((S)-1-(((S)-4-(benzylamino)-3,4-dioxo-1-((S)-2-oxopyrrolidin-3-yl)butan-2-yl)amino)-3-cyclopropyl-1-oxopropan-2-yl)-2-oxo-1,2-dihydropyridin-3-yl)-9-((2-(2,6-dioxopiperidin-3-yl)-1,3-dioxoisoindolin-4-yl)oxy)nonanamide]
IC50 [1]: < 100 nM | inhibition at 10 µM [2]: < 75% | inhibition at 50 µM [2]: < 75% | EC50 ([2]; Severe acute respiratory syndrome coronavirus 2, Vero C1008, read-out: EC50 in antiviral assay): 3200 nM | reduction of viable virus in plaque reduction assay (in words) [3]: efficient reduction of viable virus

O=C1CCC(N2C(=O)c3cccc(OCCCCCCCCNC(=O)c4ccc5cncc(N6C(=O)NC7(CC(c8ccccc8Cl)C7)C6=O)c5c4)c3C2=O)C(=O)N1 (stereo not shown) [Compound C10778N, 4-(2-(2-chlorophenyl)-6,8-dioxo-5,7-diazaspiro[3.4]octan-7-yl)-N-(8-((2-(2,6-dioxopiperidin-3-yl)-1,3-dioxoisoindolin-4-yl)oxy)octyl)isoquinoline-6-carboxamide]
IC50 [1]: < 100 nM | inhibition at 10 µM [2]: < 75% | inhibition at 50 µM [2]: > 75% | EC50 ([2]; Severe acute respiratory syndrome coronavirus 2, Vero C1008, Vero E6 infected with SARS-CoV-2 at an MOI of 0.05, read-out: EC50 in antiviral assay): 1700 nM | reduction of viable virus in plaque reduction assay (in words) [3]: efficiently reduces viable virus
